Results reported in patent publication US8183246B2, “Acyclically substituted furopyrimidine derivatives and use thereof” (Bayer Intellectual Property GmbH, priority 2005, dated 2012).

molecular target: T1, Prostacyclin Receptors (IP Receptors) of Human Thrombocyte Membranes (Homo sapiens, UniProt P43119); test: Binding to prostacyclin receptors (IP receptors) of human thrombocyte membranes (3H-Iloprost displacement); conditions: 3 nM 3H-Iloprost, 300-1000 μg/ml human thrombocyte membranes, 60 min, room temperature
T1 construct: Thrombocyte membranes are obtained by centrifuging 50 ml human blood; tissue Maco Pharma, Langen (buffy coats); host or cells: human thrombocyte (platelet) membranes from human blood
T1 sequence (P43119 whole entry): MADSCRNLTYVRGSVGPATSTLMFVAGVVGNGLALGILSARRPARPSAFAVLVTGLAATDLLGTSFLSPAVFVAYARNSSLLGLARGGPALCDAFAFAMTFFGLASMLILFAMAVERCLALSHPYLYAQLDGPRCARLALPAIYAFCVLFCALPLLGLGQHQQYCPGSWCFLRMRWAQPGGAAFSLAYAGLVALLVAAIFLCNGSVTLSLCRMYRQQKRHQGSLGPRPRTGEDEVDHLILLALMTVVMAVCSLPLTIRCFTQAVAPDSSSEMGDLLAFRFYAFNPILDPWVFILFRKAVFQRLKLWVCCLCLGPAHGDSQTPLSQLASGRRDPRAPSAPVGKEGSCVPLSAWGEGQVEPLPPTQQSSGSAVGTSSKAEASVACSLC
Method: B-1. Studies of Binding to Prostacyclin Receptors (IP Receptors) of Human Thrombocyte Membranes
Thrombocyte membranes are obtained by centrifuging 50 ml human blood (Buffy coats with CDP Stabilizer, from Maco Pharma, Langen) for 20 min at 160×g. Remove the supernatant (platelet-rich plasma, PRP) and then centrifuge again at 2000×g for 10 min at room temperature. Resuspend the sediment in 50 mM tris-(hydroxymethyl)-aminomethane, which has been adjusted to a pH of 7.4 with 1 N hydrochloric acid, and store at −20° C. overnight. On the next day, centrifuge the suspension at 80000×g and 4° C. for 30 min. Discard the supernatant. Resuspend the sediment in 50 mM tris-(hydroxymethyl)-aminomethane/hydrochloric acid, 0.25 mM ethylene diamine tetraacetic acid (EDTA), pH 7.4, and then centrifuge once again at 80000×g and 4° C. for 30 min. Take up the membrane sediment in binding buffer (50 mM tris-(hydroxymethyl)-aminomethane/hydrochloric acid, 5 mM magnesium chloride, pH 7.4) and store at −70° C. until the binding test.
For the binding test, incubate 3 nM ^3H-Iloprost (592 GBq/mmol, from AmershamBioscience) for 60 min with 300-1000 μg/ml human thrombocyte membranes per charge (max. 0.2 ml) in the presence of the test substances at room temperature. After stopping, add cold binding buffer to the membranes and wash with 0.1% bovine serum albumin. After adding Ultima Gold Scintillator, quantify the radioactivity bound to the membranes using a scintillation counter. The nonspecific binding is defined as radioactivity in the presence of 1 μM Iloprost (from Cayman Chemical, Ann Arbor) and is as a rule <25% of the bound total radioactivity. The binding data (IC50 values) are determined using the program GraphPad Prism Version 3.02.

In order of rising IC50:
1. CCc1ccc(-c2c(-c3ccccc3F)oc3ncnc(O[C@H](C)CCCCC(=O)O)c23)cc1 [Example 142, (−)-(6R)-6-{[5-(4-Ethylphenyl)-6-(2-fluorophenyl)furo[2,3-d]pyrimidin-4-yl]oxy}heptanoic acid]  2.5 nM
2. CCOC(=O)COC[C@@H](C)COc1ncnc2oc(-c3ccccc3F)c(-c3ccc(OC)cc3)c12 [Example 152, (−)-{[(2R)-3-{[5-(4-Methoxyphenyl)-6-(2-fluorophenyl)furo[2,3-d]pyrimidin-4-yl]oxy}-2-methyl-propyl]oxy}acetic acid ethyl ester]  3.7 nM
3. CCc1ccc(-c2c(-c3ccccc3F)oc3ncnc(OC[C@H](C)COCC(=O)O)c23)cc1 [Example 154, (−)-{[(2R)-3-{[5-(4-Ethylphenyl)-6-(2-fluorophenyl)furo[2,3-d]pyrimidin-4-yl]oxy}-2-methyl-propyl]oxy}acetic acid]  3.8 nM
4. COc1ccc(-c2c(-c3ccccc3)oc3ncnc(OC(C)CC(C)OCC(=O)O)c23)cc1 (single isomer, unassigned; enantiomer 2) [Example 146, (3-{[5-(4-Methoxyphenyl)-6-phenylfuro[2,3-d]pyrimidin-4-yl]oxy}-1-methylbutoxy)acetic acid (Enantiomer 2)]  7 nM
5. COc1ccc(-c2c(-c3ccccc3)oc3ncnc(O[C@H](C)CCCCC(=O)O)c23)cc1 (single isomer, unassigned; enantiomer 2) [Example 69, (−)-6-{[5-(4-Methoxyphenyl)-6-phenylfuro[2,3-d]pyrimidin-4-yl]oxy}heptanoic acid (Enantiomer 2)]  9 nM
6. COc1ccc(-c2c(-c3ccccc3)oc3ncnc(OCC(C)(C)COCC(=O)O)c23)cc1 [Example 95, (3-{[5-(4-Methoxyphenyl)-6-phenylfuro[2,3-d]pyrimidin-4-yl]oxy}-2,2-dimethylpropoxy)acetic acid]  10 nM
7. CCc1ccc(-c2c(-c3ccccc3F)oc3ncnc(OC[C@H](C)OCCC(=O)O)c23)cc1 [Example 156, 3-[(1S)-2-{[5-(4-Ethylphenyl)-6-(2-fluorophenyl)furo[2,3-d]pyrimidin-4-yl]oxy}-1-methylethoxy]-propionic acid]  13 nM
8. COc1ccc(-c2c(-c3ccccc3)oc3ncnc(OC[C@H](C)OCCC(=O)O)c23)cc1 [Example 83, (+)-3-{[(2S)-2-{[5-(4-Methoxyphenyl)-6-phenylfuro[2,3-d]pyrimidin-4-yl]oxy}-1-methylethoxy]-oxy}propionic acid]  20 nM
9. CCc1ccc(-c2c(-c3ccccc3)oc3ncnc(O[C@H](C)CCOCC(=O)O)c23)cc1 [Example 80, (−)-{[3-{[5-(4-Ethylphenyl)-6-phenylfuro[2,3-d]pyrimidin-4-yl]oxy}butyl]oxy}acetic acid]  22 nM
10. COc1ccc(-c2c(-c3ccccc3)oc3ncnc(OCC(C)COCC(=O)O)c23)cc1 (single isomer, unassigned; enantiomer 1) [Example 128, (+)-(3-{[5-(4-Methoxyphenyl)-6-phenylfuro[2,3-d]pyrimidin-4-yl]oxy}-2-methylpropoxy)acetic acid (Enantiomer 1)]  33 nM
11. COc1ccc(-c2c(-c3ccccc3)oc3ncnc(NCCCCCc4nnn[nH]4)c23)cc1 [Example 4, 5-(4-Methoxyphenyl)-6-phenyl-N-[5-(1H-tetrazol-5-yl)pentyl]furo[2,3-d]pyrimidine-4-amine]  34 nM
12. COC(=O)CCCCC(C)Oc1ncnc2oc(-c3ccccc3)c(-c3ccc(OC)cc3)c12 (racemic) [Example 63, (+/−)-6-{[5-(4-Methoxyphenyl)-6-phenylfuro[2,3-d]pyrimidin-4-yl]oxy}heptanoic acid methyl ester]  37 nM
13. COc1ccc(-c2c(-c3ccccc3C)oc3ncnc(NCCCCCC(=O)O)c23)cc1 [Example 122, 6-{[5-(4-Methoxyphenyl)-6-(2-methylphenyl)furo[2,3-d]pyrimidin-4-yl]amino}hexanoic acid]  48 nM
14. COc1ccc(-c2c(-c3ccccc3)oc3ncnc(OCCCCCc4nnn[nH]4)c23)cc1 [Example 14, 5-(4-Methoxyphenyl)-6-phenyl-4-{[5-(1H-tetrazol-5-yl)pentyl]oxy}-furo[2,3-d]pyrimidine]  49 nM
15. COC(=O)CCCCCNc1ncnc2oc(-c3ccccc3F)c(-c3ccc(OC)cc3)c12 [Example 113, 6-{[6-(2-Fluorophenyl)-5-(4-methoxyphenyl)furo[2,3-d]pyrimidin-4-yl]amino}hexanoic acid methyl ester]  51 nM
16. CCc1ccc(-c2c(-c3ccccc3)oc3ncnc(O[C@@H](C)CN(C)CCCC(=O)O)c23)cc1 [Example 140, (+)-4-{[(2S)-2-{[5-(4-Ethylphenyl)-6-phenylfuro[2,3-d]pyrimidin-4-yl]oxy}propyl](methyl)-amino}butyric acid]  52 nM
17. COc1ccc(-c2c(-c3ccccc3F)oc3ncnc(O[C@@H](C)CN(C)CCCC(=O)O)c23)cc1 [Example 138, (+)-4-{[(2S)-2-{[6-(2-Fluorophenyl)-5-(4-methoxyphenyl)furo[2,3-d]pyrimidin-4-yl]oxy}propyl]-(methyl)amino}butyric acid]  53 nM
18. C=Cc1ccc(-c2c(-c3ccccc3)oc3ncnc(NCCCCCC(=O)O)c23)cc1 [Example 33]  64 nM
19. COc1ccc(-c2c(-c3ccccc3)oc3ncnc(NCCCOCCc4nnn[nH]4)c23)cc1 [Example 15, 5-(4-Methoxyphenyl)-6-phenyl-N-{3-[2-(1H-tetrazol-5-yl)ethoxy]propyl}furo[2,3-d]pyrimidine-4-amine]  82 nM
20. COc1ccc(-c2c(-c3ccccc3Cl)oc3ncnc(NCCCCCC(=O)O)c23)cc1 [Example 117, 6-{[6-(2-Chlorophenyl)-5-(4-methoxyphenyl)furo[2,3-d]pyrimidin-4-yl]amino}hexanoic acid]  84 nM
21. COc1ccc(-c2c(-c3ccccc3)oc3ncnc(NCCCCCC(=O)O)c23)cc1 [Example 1, 6-{[5-(4-Methoxyphenyl)-6-phenylfuro[2,3-d]pyrimidin-4-yl]amino}hexanoic acid]  206 nM
22. CCc1ccc(-c2c(-c3ccccc3)oc3ncnc(NCCCCCC(=O)OC)c23)cc1 [Example 36]  217 nM
23. COc1ccc(-c2c(-c3ccccc3)oc3ncnc(OC(C)CN(C)CCCC(=O)O)c23)cc1 (racemic) [Example 92, (+/−)-4-[(2-{[5-(4-Methoxyphenyl)-6-phenylfuro[2,3-d]pyrimidin-4-yl]oxy}propyl)(methyl)-amino]butanoic acid]  219 nM
24. CCc1ccc(-c2c(-c3ccccc3)oc3ncnc(O[C@@H](C)COCCC(=O)O)c23)cc1 [Example 85, (+)-3-{[2-{[5-(4-Ethylphenyl)-6-phenylfuro[2,3-d]pyrimidin-4-yl]oxy}propyl]oxy}propionic acid]  470 nM
25. COC(=O)CCCCCN(C)c1ncnc2oc(-c3ccccc3)c(-c3ccc(OC)cc3)c12 [Example 45, 6-{[5-(4-Methoxyphenyl)-6-phenylfuro[2,3-d]pyrimidin-4-yl](methyl)amino}hexanoic acid methyl ester]  895 nM
